Assay results reported in patent publication US20230065953A1, “NOVEL HETEROARYL-TRIAZOLE COMPOUNDS AS PESTICIDES” (Bayer Aktiengesellschaft, priority 2019, published 2023).

What was measured:
Type in all cases: in vivo
[1] = system: larvae of the banded cucumber beetle (Diabrotica balteata); assay: Diabrotica balteata spray test; conditions: 168 h, 100 g/ha (=32 μg/well), wheat seeds, after 7 days, read-out: efficacy (seedling growth)
Experimental: Diabrotica Balteata—Spray Test
• Solvent: 78.0 parts by weight of acetone • 1.5 parts by weight of dimethylformamide • Emulsifier: alkylarylpolyglycol ether
Further test concentrations are prepared by dilution with emulsifier containing water.
Soaked wheat seeds (Triticum aestivum) are placed in a multiple well plate filled with agar and some water and are incubated for 1 day to germinate (5 seeds per well). The germinated wheat seeds are sprayed with a test solution containing the desired concentration of the active ingredient. Afterwards each unit is infected with 10-20 larvae of the banded cucumber beetle (Diabrotica balteata).
After 7 days efficacy in % is determined.

[2] = system: fall armyworm larvae (Spodoptera frugiperda); assay: Spodoptera frugiperda spray test (maize leaf sections); conditions: 168 h
Experimental: Spodoptera frugiperda—Spray Test • Solvent: 78.0 parts by weight acetone • 1.5 parts by weight dimethylformamide • Emulsifier: alkylarylpolyglycol ether
(§1) To produce a suitable preparation of active compound, 1 part by weight of active compound is mixed with the stated amount of solvents and is diluted with water, containing an emulsifier concentration of 1000 ppm, to the desired concentration. Further test concentrations are prepared by dilution with emulsifier containing water.
Maize (Zea mays) leaf sections are sprayed with a preparation of the active ingredient of the desired concentration. Once dry, the leaf sections are infested with fall armyworm larvae (Spodoptera frugiperda).
After 7 days mortality in % is determined. 100% means all caterpillars have been killed and 0% means none of the caterpillars have been killed.

[3] = system: larvae of the southern green stink bug (Nezara viridula); assay: Nezara viridula spray test; conditions: in Hordeum vulgare, 96 h
Experimental: Nezara viridula—Spray Test • Solvent: 78.0 parts by weight of acetone • 1.5 parts by weight of dimethylformamide • Emulsifier: alkylarylpolyglycol ether
as §1, with “solvent,” for “solvents”, “and the concentrate” for “and”
Barley plants (Hordeum vulgare) are sprayed with a test solution containing the desired concentration of the active ingredient and are infested with larvae of the southern green stink bug (Nezara viridula).
After 4 days mortality in % is determined. 100% means all the stink bugs have been killed; 0% means none of the stink bugs have been killed.

Row | Structure (SMILES) | pest or weed control at 32 µg/disc, 100 g/ha [1] | mortality at 100 g/ha [2] | mortality at 100 g/ha [3] | mortality at 500 g/ha [3]
1 | Cc1nc([C@H](C)NC(=O)c2cc(Cl)cc(C(F)(F)F)c2)n(-c2ncc(C(=O)N(C)C)s2)n1 [I-22] | 100% | 100% | – | –
2 | C[C@H](NC(=O)c1cc(F)cc(C#N)c1)c1ncnn1-c1ncc(C#N)s1 [I-41] | 100% | 100% | – | –
3 | C[C@H](NC(=O)c1cc(Br)cc(C2(F)CC2)c1)c1ncnn1-c1ncc(C#N)s1 [I-43] | 100% | 100% | – | –
4 | C[C@H](NC(=O)c1cc(C(F)F)cc(C2CC2)c1)c1ncnn1-c1ncc(C#N)s1 [I-44] | 100% | 100% | – | –
5 | C[C@H](NC(=O)c1cc(Br)cc(C2CC2(F)F)c1)c1ncnn1-c1ncc(C#N)s1 (stereo partly drawn) [I-45] | 100% | 100% | – | –
6 | C[C@H](NC(=O)c1cc(OC(F)(F)F)cc(S(C)(=O)=O)c1)c1nc(C2CC2)nn1-c1ncc(C#N)s1 [I-48] | 100% | 100% | – | –
7 | C[C@H](NC(=O)c1cc(F)cc(C(F)F)c1)c1ncnn1-c1ncc(C#N)s1 [I-49] | 100% | 100% | – | –
8 | C[C@H](NC(=O)c1cc(F)cc(OC(F)F)c1)c1ncnn1-c1ncc(C#N)s1 [I-53] | 100% | 100% | – | –
9 | C[C@H](NC(=O)c1cc(Br)cc(S(=O)(=O)C(F)(F)F)c1)c1ncnn1-c1ncc(C#N)s1 [I-55] | 100% | 100% | – | –
10 | C[C@H](NC(=O)c1cc(C2CC2)cc(S(=O)(=O)C(F)(F)F)c1)c1ncnn1-c1ncc(C#N)s1 [I-56] | 100% | 100% | – | –
11 | C[C@H](NC(=O)c1cc(Br)cc(OC(F)(F)F)c1)c1ncnn1-c1ncc(C#N)s1 [I-57] | 80% | 100% | – | –
12 | C[C@H](NC(=O)c1cc(Br)cc(C#N)c1)c1ncnn1-c1ncc(C#N)s1 [I-58] | 100% | – | – | –
13 | C[C@H](NC(=O)c1cc(OC(F)(F)F)cc(S(=O)(=O)C2CC2)c1)c1ncnn1-c1ncc(C#N)s1 [I-61] | 100% | 100% | – | –
14 | CCS(=O)(=O)c1cc(OC(F)(F)F)cc(C(=O)N[C@@H](C)c2ncnn2-c2ncc(C#N)s2)c1 [I-62] | 100% | 100% | – | –
15 | CC(C)S(=O)(=O)c1cc(OC(F)(F)F)cc(C(=O)N[C@@H](C)c2ncnn2-c2ncc(C#N)s2)c1 [I-63] | 100% | – | – | –
16 | Cc1nc([C@H](C)NC(=O)c2cc(Cl)cc(C(F)(F)F)c2)n(-c2ncc(C(=O)NC(C)C)s2)n1 [I-68] | 100% | 100% | – | –
17 | CC(NC(=O)c1cc(Br)cc(OCC(F)(F)F)c1)c1ncnn1-c1ncc(C#N)s1 (stereo not drawn) [I-88] | 100% | 100% | – | –
18 | Cc1nc([C@H](C)NC(=O)c2cc(Br)cc(OCC(F)(F)F)c2)n(-c2ncc(C#N)s2)n1 [I-92] | 100% | 100% | – | –
19 | C[C@H](NC(=O)c1cc(Cl)cc(C#N)c1)c1ncnn1-c1ncc(C#N)s1 [I-101] | 100% | 100% | – | –
20 | C[C@H](NC(=O)c1cc(Cl)cc(S(=O)(=O)C(F)(F)F)c1)c1ncnn1-c1ncc(C(=O)N(C)C)s1 [I-116] | 100% | 100% | – | –
21 | C[C@H](NC(=O)c1cc(C(F)F)cc(C(F)F)c1)c1ncnn1-c1ncc(C(=O)N(C)C)s1 [I-117] | – | – | 100% | 100%
22 | CNC(=O)c1cnc(-n2ncnc2[C@H](C)NC(=O)c2cc(Cl)cc(C3CC3)c2)s1 [I-122] | 100% | 100% | – | –
23 | C[C@H](NC(=O)c1cc(OC(F)F)cc(S(C)(=O)=O)c1)c1nc(C2CC2)nn1-c1ncc(C#N)s1 [I-132] | 100% | 100% | – | –

Row | Structure (SMILES) | pest or weed control at 32 µg/disc, 100 g/ha [1] | mortality at 100 g/ha [2] | mortality at 100 g/ha [3] | mortality at 500 g/ha [3]
24 | C[C@H](NC(=O)c1cc(OC(F)F)cc(S(=O)(=O)C2CC2)c1)c1nc(C2CC2)nn1-c1ncc(C#N)s1 [I-133] | 100% | 100% | – | –
25 | C[C@H](NC(=O)c1cc(C#N)cc(OC(F)(F)F)c1)c1ncnn1-c1ncc(C#N)s1 [I-135] | 100% | 100% | – | –
26 | C[C@H](NC(=O)c1cc(Cl)nc(OC(F)(F)F)c1)c1ncnn1-c1ncc(C#N)s1 [I-139] | 100% | 100% | – | –
27 | CNC(=O)c1cnc(-n2ncnc2[C@H](C)NC(=O)c2cc(Cl)cc(S(=O)(=O)c3ccc(Cl)cc3)c2)s1 [I-140] | 100% | 100% | – | –
28 | C[C@H](NC(=O)c1cc(Cl)cc(S(=O)(=O)c2ccc(Cl)cc2)c1)c1ncnn1-c1ncc(C(=O)N(C)C)s1 [I-141] | – | 100% | – | –
29 | C[C@H](NC(=O)c1cc(Cl)cc(S(=O)(=O)c2ccc(Cl)cc2)c1)c1ncnn1-c1ncc(C#N)s1 [I-143] | 80% | 100% | – | –
30 | C[C@H](NC(=O)c1cc(OC(F)(F)F)cc(OC(F)(F)F)c1)c1ncnn1-c1ncc(C#N)s1 [I-144] | 100% | 100% | – | –
31 | C[C@H](NC(=O)c1cc(Br)cc(OC(F)(F)F)c1)c1ncnn1-c1ncc(C(=O)N(C)C2CC2)s1 [I-145] | 100% | 100% | – | –
32 | C[C@H](NC(=O)c1cc(Cl)cc(S(=O)(=O)C(F)F)c1)c1ncnn1-c1ncc(C(=O)N(C)C2CC2)s1 [I-146] | 100% | 100% | – | –
33 | C[C@H](NC(=O)c1cc(OC(F)(F)F)cc(S(C)(=O)=O)c1)c1ncnn1-c1ncc(C(=O)N(C)C2CC2)s1 [I-147] | 100% | 100% | – | –
34 | C[C@H](NC(=O)c1cc(Cl)cc(S(=O)(=O)c2ccc(Cl)cc2)c1)c1ncnn1-c1ncc(C(=O)N(C)C2CC2)s1 [I-149] | 100% | 100% | – | –
35 | C[C@H](NC(=O)c1cc(C(F)F)cc(C(F)F)c1)c1ncnn1-c1ncc(C(=O)N(C)C2CC2)s1 [I-150] | 100% | 100% | – | –
36 | C[C@H](NC(=O)c1cc(C(F)(F)F)cc(C(F)(F)F)c1)c1ncnn1-c1ncc(C(=O)N(C)C2CC2)s1 [I-151] | 100% | 100% | – | –
37 | C[C@H](NC(=O)c1cc(Cl)cc(S(=O)(=O)C(F)(F)F)c1)c1ncnn1-c1ncc(C(=O)N(C)C2CC2)s1 [I-153] | 100% | 100% | – | –
38 | C[C@H](NC(=O)c1cc(C(F)(F)F)cc(C(F)(F)F)c1)c1nc(C2CC2)nn1-c1ncc(C(=O)N(C)C)s1 [I-156] | 100% | 100% | – | –
39 | C[C@H](NC(=O)c1cc(OC(F)(F)F)cc(C2CC2)c1)c1nc(C2CC2)nn1-c1ncc(C(=O)N(C)C)s1 [I-157, 2-(3-cyclopropyl-5-{(1S)-1-[3-cyclopropyl-5-(trifluoromethoxy)benzamido]ethyl}-1H-1,2,4-triazol-1-yl)-N,N-dimethyl-1,3-thiazole-5-carboxamide] | 100% | 100% | – | –
40 | Cc1nc([C@H](C)NC(=O)c2cc(OC(F)(F)F)cc(S(C)(=O)=O)c2)n(-c2ncc(C#N)s2)n1 [I-159] | 100% | 100% | – | –
41 | Cc1nc([C@H](C)NC(=O)c2cc(Cl)cc(S(=O)(=O)C(F)(F)F)c2)n(-c2ncc(C#N)s2)n1 [I-160] | 100% | 100% | – | –
42 | Cc1nc([C@H](C)NC(=O)c2cc(S(=O)(=O)C(F)(F)F)cc(S(=O)(=O)C(F)(F)F)c2)n(-c2ncc(C#N)s2)n1 [I-162] | 100% | 100% | – | –
43 | Cc1nc([C@H](C)NC(=O)c2cc(Cl)cc(S(=O)(=O)C3CC3)c2)n(-c2ncc(C#N)s2)n1 [I-163] | 100% | 100% | – | –
44 | Cc1nc([C@H](C)NC(=O)c2cc(OC(F)(F)F)cc(S(=O)(=O)C3CC3)c2)n(-c2ncc(C#N)s2)n1 [I-164] | 100% | 100% | – | –
45 | C[C@H](NC(=O)c1cncc(OC(F)(F)F)c1)c1ncnn1-c1ncc(C#N)s1 [I-174] | – | – | – | 100%
46 | COc1nc(C(C)NC(=O)c2cc(OC(F)(F)F)cc(S(=O)(=O)C3CC3)c2)n(-c2ncc(C#N)s2)n1 (stereo not drawn) [I-200, N-{1-[1-(5-cyano-1,3-thiazol-2-yl)-3-methoxy-1H-1,2,4-triazol-5-yl]ethyl}-3-(cyclopropylsulfonyl)-5-(trifluoromethoxy)benzamide] | 100% | – | – | –
